Reference: BindingDB's records for patent US10696682 (G1 Therapeutics, 2020)

target: Cyclin-dependent kinase 2/G1/S-specific cyclin-E1 (Homo sapiens, UniProt P24941+P24864); assay: Biological Activity Assay
Procedure: Kinase enzymatic reactions were performed in 384-well microplates using a 12-channel Caliper LabChip instrument as a detection device. […] As substrate and product are separated, two peaks of fluorescence are observed. Change in the relative fluorescence intensity of the substrate and product peaks is the parameter measured, reflecting enzyme activity. In the presence of an inhibitor, the ratio between product and substrate is altered. […] Potential inhibitor compounds (as HCl salts) were tested using 12-point dose response curves in single point at the Km for ATP.

| SMILES | IC50 [µM] |
| --- | --- |
| CN1CCN2C(=CC3C=NC(Nc4ccc(N5CCNCC5)cn4)=NC32)C1=O (centres undefined) [US10696682, Compound 5] | > 100 |
| CC(C)C1CNC(=O)C2=CC3C=NC(Nc4ccc(N5CCN(C)CC5)cn4)=NC3N21 (centres undefined) [US10696682, Compound 7] | > 100 |
| CC(C)[C@H]1CN(C)C(=O)C2=CC3C=NC(Nc4ccc(N5CCNCC5)cn4)=NC3N21 (some centres undefined) [US10696682, Compound 11] | > 100 |
| CC(C)C[C@H]1CN(C)C(=O)C2=CC3C=NC(Nc4ccc(N5CCNCC5)cn4)=NC3N21 (some centres undefined) [US10696682, Compound 15] | > 100 |
| CCC(C)[C@H]1CN(C)C(=O)C2=CC3C=NC(Nc4ccc(N5CCN(C)CC5)cn4)=NC3N21 (some centres undefined) [US10696682, Compound 18] | > 100 |
| CCC(C)[C@H]1CN(C)C(=O)C2=CC3C=NC(Nc4ccc(N5CCNCC5)cn4)=NC3N21 (some centres undefined) [US10696682, Compound 19] | > 100 |
| CN1CC2(CCCC2)N2C(=CC3C=NC(Nc4ccc(N5CCNCC5)cn4)=NC32)C1=O (centres undefined) [US10696682, Compound 31] | > 100 |
| CC(C)CC1CN(C)C(=O)C2=CC3C=NC(Nc4ccc(N5CCNCC5)cn4)=NC3N21 (centres undefined) [US10696682, Compound 47] | > 100 |
| CN1CCN(c2ccc(NC3=NC4C(C=N3)C=C3C(=O)N[C@H]5CCC[C@@H]5N34)nc2)CC1 (some centres undefined) [US10696682, Compound 48] | > 100 |
